Data published in US7204984B2, “Acetyllysine-recognizing monoclonal antibody and process for producing the same” (Japan Science and Technology Corporation, priority 2001, dated 2007).
Non-standard residues stand in square brackets, D forms with d. Residues, ends and D or L forms follow the SMILES beside them. *: point of attachment. Asu = N[C@@H](CCCCCC(=O)O)C(=O)O; NHOH = ON*

Tested on: histone-deacetylase
Experiment: Histone acetylation in cells treated with CHAP31 (Western blotting)
Format: cell-based
Details: 1 μM, 24 hours, detected with Clone-1 antibody
Method: Five types of cells, B16/BL6, MOLT-4F, HeLa-S3, COS-1, and COS-7 were treated with, 1 μM of histone-deacetylase inhibitor, CHAP31, for 24 hours, and then cell lysates were prepared and developed on an electrophoresis, followed by detecting acetylated proteins using the above four antibodies as primary antibodies. In FIGS. 2, A, B, C, and D indicate the results of the detections using Clone-1, Clone-2, Clone-3, and Clone-4, respectively. The concentration of the primary antibodies used for the Western blotting were 107 ng/ml, 65.7 ng/ml, 258 ng/ml, and 158 ng/ml, respectively, and each of these concentration provide the same reactivity (A492=1) in ELISA where acetylated bovine serum albumin was immobilized. The total cell lysates were prepared from the cells (+) after subjecting each cell in the 1 μM CHAP31 treatment for 24 hours or the cells (−) without the treatment. In each lane, 20 μg of protein was loaded. Five types of cells being used were 1: B16/BL6, 2: MOLT-4F, 3: HeLa-S3, 4: COS-1, and 5: COS-7, respectively.

With `CC[C@H](C)[C@@H]1NC(=O)[C@@H](Cc2ccc(OC)cc2)NC(=O)[C@H](CCCCCC(=O)NO)NC(=O)[C@H]2CCCN2C1=O` [CHAP31] (cyclo([Asu](NHOH)[dY](Me)I[dP])) as the compound, how does the acetylation of histone read?
The acetylation of histone was “increased”.
